Laboratory results taken from patent US7291629B2, “Neurotrophin antagonist compositions” (Painceptor Pharma Corporation, priority 1996, dated 2007).
Like-named read-outs stand apart in the source and are kept apart here.

Assays:
[1] = tested on: chick embryo dorsal root ganglia (DRG) neurons; test: Inhibition of neurite outgrowth (NGF-stimulated DRG neurons); format: cell-based; details: 0.25 ng/mL NGF, NGF Control 1.000
Method: Eight-day chick embryo dorsal root ganglia (DRG) were freed of meninges and removed aseptically. The DRG were kept at 4° C. at all times. Ganglia from six embryos (40-50 per embryo) were washed in Ca^2+-and Mg^2+-free Gey's balanced salt solution (Gibco) and exposed to 0.01% trypsin (Worthington) in the same solution for 10 min at 37° C. A half-volume of phosphate-buffered Gey's balanced salt solution was added for a further 5 min at 37° C. and the reaction was then terminated with one-third volume of Ham's F12 medium (Gibco) containing 5% fetal calf serum (FCS, Gibco). The ganglia were then triturated using a 5 mL narrow-tip pipette to a single cell suspension. Following filtration through […] nylon mesh (Small Parts Inc., Miami, Fla.) in a Millipore chamber to remove clumps, the cell suspension was washed through a 500-ml FCS undercut (700×g for 5 min at 4° C.) and resuspended in 4 mL of Ham's F12 medium plus 5% FCS. The cell suspension was then preplated on a 100-mm Flacon culture dish and incubated for 45-60 min at 37° C. in a 5% CO2 humidified atmosphere. Cells enriched in neurons were decanted for the bioassay, since non-neuronal cells of DRG preferentially stick to the culture substrate.
The inside wells of 96-well Falcon microculture plates were coated with polylysine (0.1 mg/mL) (Sigma) for 4 h at 37° C. (the outside wells were filled with distilled water to provide humidity) and, following a rinse with tissue culture media, […] of neuron-rich cell suspension was added to each well at 10^5 cells/mL. Ninety (90) […] of NGF solution (prepared in tissue culture media) was then added to each well to a final concentration of 0.25 ng/mL NGF per well. […]
The bioassays were read using a Leitz Diavert microscope with phase optics. […] At least 100 neurons per well were counted, and the assay was scored as the ratio of cells bearing neurites greater than one cell diameter to total viable (phase bright) cells.

nerve-ligated rats = test: Nerve-ligated injury model of neuropathic pain, i.c.v. administration (tactile allodynia, thermal hyperalgesia, acute nociception); format: in vivo, rat; details: given i.c.v.
[2] = tested on: L5/L6 Nerve Ligated and Sham-Operated Rats; details: for A50(95% C.L.) Tail Flick- Ligated: L5/L6 nerve ligated rats; for A50(95% C.L.) Tail Flick- Sham: sham-operated rats
[3] = tested on: L5/L6 Nerve Ligated and Sham-Operated Rats; details: for A50(95% C.L.) Hot Plate- Ligated: L5/L6 nerve ligated rats; for A50(95% C.L.) Hot Plate- Sham: sham-operated rats
L5/L6 Nerve Ligated rats = test: Tactile allodynia, nerve ligation injury model (von Frey paw withdrawal threshold)

**Q.** For O=C1c2cccc3cc([N+](=O)[O-])cc(c23)C(=O)N1CCO [Compound A], which “Ratio (cells bearing neurites greater than one cell diameter to total viable cells)” value (shortened to “Ratio”) ([1]; 5 μM compound) is on record?
**A.** The value was 1.1.

**Q.** And the “Ratio” value ([1]; 50 μM compound)?
**A.** The value was 0.16.

**Q.** What about the “Ratio” value ([1]; 100 μM compound) of the same compound?
**A.** The value was 0.016.

**Q.** What about the “Activity in nerve-ligated injury model of neuropathic pain” value (nerve-ligated rats) of the same compound?
**A.** The value was “not active”.

**Q.** What about the “A50(95% C.L.) Tail Flick- Ligated” value ([2]; i.p.) of the same compound?
**A.** Its value is 27.8 mg/kg.

**Q.** And the “A50(95% C.L.) Tail Flick- Sham” value ([2]; i.p.)?
**A.** Its value is 25.7 mg/kg.

**Q.** What about the “A50(95% C.L.) Tail Flick- Ligated” value ([2]; i.th) of the same compound?
**A.** Its value is 78 µg.

**Q.** And the “A50(95% C.L.) Tail Flick- Sham” value ([2]; i.th)?
**A.** The value was 34 µg.

**Q.** And the “A50(95% C.L.) Hot Plate- Ligated” value ([3]; i.p.)?
**A.** Its value is 18.6 mg/kg.

**Q.** What about the “A50(95% C.L.) Hot Plate- Sham” value ([3]; i.p.) of the same compound?
**A.** Its value is 34.9 mg/kg.

**Q.** And the “A50(95% C.L.) Hot Plate- Ligated” value ([3]; i.th)?
**A.** The value was 14.8 µg.

**Q.** And the “A50(95% C.L.) Hot Plate- Sham” value ([3]; i.th)?
**A.** The value was 48.1 µg.

**Q.** What about the “A50(95% C.L.) Allodynia- Ligated” value (L5/L6 Nerve Ligated rats; i.p.) of the same compound?
**A.** The value was 38 mg/kg.

**Q.** What about the “A50(95% C.L.) Allodynia- Ligated” value (L5/L6 Nerve Ligated rats; i.th) of the same compound?
**A.** Its value is 34.6 µg.
